Assay results from patent publication US20080108645A1, “Dihydrotetrabenazines And Pharmaceutical Compositions Containing Them” (CAMBRIDGE LABORATORIES, (IRELAND), LTD., priority 2004, published 2008).
“Also recorded” adds a separate entry of the source.

Columns and labels:
[1] = target: T1, Dopamine D2L Receptor (Homo sapiens, UniProt P14416); test: Dopamine D2L receptor radioligand binding; conditions: 10 μM; 0.16 nM [3H] Spiperone
T1 construct: expressed in transfected cells; host or cells: CHO cells
T1 sequence (P14416 whole entry): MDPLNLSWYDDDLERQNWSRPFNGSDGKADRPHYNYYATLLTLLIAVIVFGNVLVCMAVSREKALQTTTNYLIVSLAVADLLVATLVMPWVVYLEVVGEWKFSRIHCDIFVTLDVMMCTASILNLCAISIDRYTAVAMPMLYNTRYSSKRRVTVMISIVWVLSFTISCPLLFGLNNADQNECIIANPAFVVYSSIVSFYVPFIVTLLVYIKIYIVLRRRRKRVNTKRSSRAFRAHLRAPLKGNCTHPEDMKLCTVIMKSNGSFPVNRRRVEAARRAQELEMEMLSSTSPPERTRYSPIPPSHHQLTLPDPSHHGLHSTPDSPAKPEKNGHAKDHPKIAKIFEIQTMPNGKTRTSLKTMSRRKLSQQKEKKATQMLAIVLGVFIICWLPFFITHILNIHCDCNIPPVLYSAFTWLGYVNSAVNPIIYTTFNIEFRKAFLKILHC
Description: (§1) (a) Adrenergic α2A Receptor: • Reference: S. Uhlen et al. J. Pharmacol. Exp. Ther., 271:1558-1565 (1994) • Source: Human recombinant insect Sf9 cells • Ligand: 1 nM [^3H] […] J. Pharmacol., 99:803-809, (1990) • Source: Wistar rat cerebral cortex • Ligand: 2 nM [3H]

[2] = system: Male Sprague-Dawley rats; test: Spontaneous locomotor activity in rats (sedative properties); assay type: in vivo, rat; conditions: for sedative effect (in words): 0.3-10 mg/kg i.p., 45 minutes and 3 hours after administration
Description: A study was carried out in rats to determine whether the dihydrotetrabenazine isomers of the invention have sedative properties. The effects of the isomers on spontaneous locomotor activity in rats were compared with the effects produced by tetrabenazine and haloperidol using the methods set out below.
Male Sprague-Dawley rats, (Charles River Laboratories, Saint-Germain/L'Arbresle, France), weighing 200-250 g at the beginning of the study, were used for the studies. The rats were housed, 2 or 3 per cage, in Makrolon type III cages, in a room set up with the following environmental conditions: temperature: 20±2° C., humidity: minimum 45%, air changes: >12 per hour, light/dark cycle of 12 h/12 h [on at 7:00 a.m.]. The rats were allowed to acclimatize to their conditions for at least five days before commencement of the study. The rats received food (Dietex, Vigny, France, ref. 811002) and water (tap water in water bottle) ad libitum.
Solutions of each test compound in corn oil were freshly prepared on the day of the experiment. Haloperidol was prepared in hydroxyethylcellulose, 0.5% in deionized water. Either the vehicle or the test compounds were administered as a single dose (0.3, 1, 3 and 10 mg/kg, 2 mL/kg i.p.). The reference compound haloperidol (1 mg/kg) was administered i.p. (2 mL/kg).
The animals were placed in plexiglass cages under a video camera in a room with low light intensity (maximum 50 lux). At forty five minutes and 3 hours after administration, locomotor activity was determined during 20 minute periods using a video image analyzer (Videotrack, View Point, France). Locomotor activity was recorded in the reference group (haloperidol) at 1 hour after administration. The number and duration of ambulatory movements and duration of inactivity was measured. At the end of the locomotor activity measurement (45 minutes and 3 hours), palpebral closure and arousal were be scored as follows in the plexiglass cage:
The number of occurrences and duration (in seconds) of ambulatory (large) movements and the duration of periods of inactivity (seconds) was determined during two 20 minute periods (45 minutes and 3 hours after administration) using a video image analyzer (Videotrack, ViewPoint, Lyon, France). Image tracking was performed using a video camera placed above the plexiglass cage, recording overall locomotor activity. Images recorded with the video camera were digitalized and displacement of the centre of gravity of the digital image spots was tracked and analyzed using the following method: the speed of displacement of the centre of gravity of the spot was measured and two threshold values were set to define the type of movement: threshold 1 (high speed) and threshold 2 (low speed). When the animal moved and the speed of displacement of the centre of gravity of the spot was above threshold 1, the movement was considered as an ambulatory movement.
The results were expressed as the means±SEMs of the 12 individual values. Statistical analyses were carried out using ANOVA (one way) and Dunnett's t-test and with the non parametric test of Kruskal-Wallis followed by a Mann & Whitney U-test for the sedation cotation. A p value of p<0.05 was taken as indicating significance.

[3] = target: T2, Dopamine Transporter (DAT) (Homo sapiens, UniProt Q01959); test: Dopamine transporter (DAT) radioligand binding; conditions: for Percentage Inhibition of Specific Binding, DAT: 10 μM, 0.15 nM [125I] RTI-55
T2 construct: expressed in transfected cells; host or cells: CHO cells
T2 sequence (Q01959 whole entry): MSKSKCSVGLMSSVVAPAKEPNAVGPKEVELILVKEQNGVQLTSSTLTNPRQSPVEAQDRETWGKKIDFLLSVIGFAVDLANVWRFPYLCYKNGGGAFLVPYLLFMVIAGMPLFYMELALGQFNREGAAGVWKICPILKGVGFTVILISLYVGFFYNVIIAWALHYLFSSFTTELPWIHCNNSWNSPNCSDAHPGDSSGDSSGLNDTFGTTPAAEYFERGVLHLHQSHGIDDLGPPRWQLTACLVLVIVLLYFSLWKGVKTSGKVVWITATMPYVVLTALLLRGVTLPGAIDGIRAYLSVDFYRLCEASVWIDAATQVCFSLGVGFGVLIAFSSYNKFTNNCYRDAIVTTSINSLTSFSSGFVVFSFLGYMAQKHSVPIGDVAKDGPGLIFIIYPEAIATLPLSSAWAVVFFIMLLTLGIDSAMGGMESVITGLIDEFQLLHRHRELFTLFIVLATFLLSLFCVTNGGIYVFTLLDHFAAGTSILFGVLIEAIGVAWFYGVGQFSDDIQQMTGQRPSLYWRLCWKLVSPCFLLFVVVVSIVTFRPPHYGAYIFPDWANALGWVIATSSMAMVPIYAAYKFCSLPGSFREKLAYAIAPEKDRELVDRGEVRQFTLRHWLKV
Description: as §1

[4] = system: 5-HT1D/1B receptors; test: 5-HT1D/1B binding assay, [N-methyl 3H] GR-125743, rat forebrain P2 membranes
Description: The ability of Compound B and Compound C to bind to 5-HT1D/1B receptors was tested using an assay based on the one described by Millan, M J et al. (2002) Pharmacol. Biochem. Behav. […] [N-methyl ^3H] GR-125743 was used as the radioligand for both 5-HT1D and 5-HT1B receptors. Adult SD rat forebrain P2 membranes (Chazot et al., 1993) were used for the assay. The assay buffer used was 50 mM Tris-HCl pH 7.7 at room temperature containing 4 mM calcium chloride, 0.1% ascorbic acid and 10 μM pargyline. 5-HT (10 μM) was used to define non-specific binding. Incubation with 1 nM [^3H] GR-125743 was carried out for 1 hour at room temperature, and the reaction was terminated by rapid filtration using a Brandel Harvester through GF/B filters pre-soaked in 0.1% polyethyleneimine, followed by three washes with ice-cold buffer (supplemented with 0.1% BSA). A dose range of 10^−10-10^−4M was utilised. The resultant competition curves were analysed using the GraphPad Prism 4 package.

[5] = 0.3 mg/kg i.p., 45 minutes after administration
[6] = 0.3 mg/kg i.p., 3 hours after administration
[7] = 1 mg/kg i.p., 45 minutes after administration
[8] = 1 mg/kg i.p., 3 hours after administration
[9] = 3 mg/kg i.p., 45 minutes after administration
[10] = 3 mg/kg i.p., 3 hours after administration
[11] = 10 mg/kg i.p., 45 minutes after administration
[12] = 10 mg/kg i.p., 3 hours after administration

Row | SMILES | Percentage Inhibition of Specific Binding, D2L Receptor [1] [%] | Inactivity Duration [2, 5] [s] | Large movements Duration [2, 5] [s] | Large movements Occurrence [2, 5] | Inactivity Duration [2, 6] [s] | Large movements Duration [2, 6] [s] | Large movements Occurrence [2, 6] | Inactivity Duration [2, 7] [s] | Large movements Duration [2, 7] [s] | Large movements Occurrence [2, 7] | Inactivity Duration [2, 8] [s] | Large movements Duration [2, 8] [s] | Large movements Occurrence [2, 8] | Inactivity Duration [2, 9] [s] | Large movements Duration [2, 9] [s] | Large movements Occurrence [2, 9] | Inactivity Duration [2, 10] [s] | Large movements Duration [2, 10] [s] | Large movements Occurrence [2, 10] | Inactivity Duration [2, 11] [s] | also measured
1 | COc1cc2c(cc1OC)[C@H]1C[C@H](O)[C@@H](CC(C)C)CN1CC2 (single isomer, unassigned) [Isomer B, 3,11b-cis-dihydrotetrabenazine] | 16 | 346.1 ± 36.9 | 72.0 ± 9.6 | 268 ± 36 | 566.4 ± 44.3 | 28.9 ± 9.2 | 101 ± 29 | 334.0 ± 23.2 | 87.0 ± 7.6 | 297 ± 22 | 525.8 ± 28.6 | 34.5 ± 6.2 | 125 ± 18 | 342.2 ± 33.3 | 89.1 ± 12.4 | 313 ± 38 | 530.5 ± 38.0 | 31.1 ± 6.5 | 113 ± 17 | 333.1 ± 26.9 | Large movements Duration [2, 11]: 84.0 ± 11.2 s; Large movements Occurrence [2, 11]: 298 ± 37; Inactivity Duration [2, 12]: 515.0 ± 53.0 s; Large movements Duration [2, 12]: 30.9 ± 6.4 s; Large movements Occurrence [2, 12]: 120 ± 26; sedative effect (in words) [2]: no sedative effects were observed; DAT binding activity (in words) [3]: lack Dopamine Transporter (DAT) binding activity; Percentage Inhibition of Specific Binding, DAT [3]: 4%; affinity/activity at 5-HT1D/1B (in words) [4]: low affinity for 5-HT1D/1B receptors; also recorded: no inhibitory activity
2 | COc1cc2c(cc1OC)[C@H]1C[C@@H](O)[C@@H](CC(C)C)CN1CC2 (single isomer, unassigned) [Isomer C, 3,11b-cis-dihydrotetrabenazine] | −14 | 323.7 ± 25.6 | 79.2 ± 10.0 | 285 ± 34 | 519.3 ± 33.7 | 31.4 ± 6.0 | 113 ± 19 | 324.6 ± 38.1 | 71.8 ± 8.3 | 295 ± 30 | 510.2 ± 44.9 | 30.3 ± 6.5 | 128 ± 24 | 322.7 ± 27.8 | 84.0 ± 9.4 | 308 ± 36 | 493.6 ± 38.5 | 30.2 ± 5.5 | 125 ± 22 | 368.7 ± 30.9 | Large movements Duration [2, 11]: 66.5 ± 9.9 s; Large movements Occurrence [2, 11]: 254 ± 32; Inactivity Duration [2, 12]: 465.7 ± 49.0 s; Large movements Duration [2, 12]: 42.7 ± 8.0 s; Large movements Occurrence [2, 12]: 164 ± 30; sedative effect (in words) [2]: no sedative effects were observed; hyperlocomotor effect (in words) ([2]; 3 hours after administration): slight and non-significant hyperlocomotor effect; DAT binding activity (in words) [3]: lack Dopamine Transporter (DAT) binding activity; Percentage Inhibition of Specific Binding, DAT [3]: −2%; affinity/activity at 5-HT1D/1B (in words) [4]: low affinity for 5-HT1D/1B receptors; also recorded: no inhibitory activity
